Values joined by “and” are separate entries in the source; they are usually repeats but may differ in a detail not shown here. Equal entries are not always repeated. Where two headings read alike, the source gives them in different places.
Key:
[1] = In vivo pharmacokinetics and biodistribution in SD rats; design: species or system Sprague Dawley rats
Procedure: For the measurement of detailed pharmacokinetics profiles of the optimal NAC combination with CBS identified from the above mice study, rats received a minor surgery of cannulation one day prior to experiment, with a polythene tube (i.d.0.4 mm×o.d. 0.8 mm, Harvard Apparatus, USA) in the left jugular vein, followed by an overnight recovery and fasting. Two group of rats (n=5 per group) were orally administrated with 1-mL aliquot of CBS (150 mg/kg) or CBS (150 mg/kg)+10NAC (610 mg/kg). About 200 μL of rat blood were collected via the jugular vein cannula into a heparinized centrifuge tube at 0.17, 0.33, 0.5, 1, 2, 4, 6, 8, 12, 24-hour post drug administration for respective group. Rats were allowed for free access to food 12 h after drug administrations. All the rats were sacrificed 24-hour post dosing followed by cardiac perfusion with 200-mL saline to collect major organs including spleen, liver, lung, kidney and brain for further analyses. For the digestion of tissues, a modified protocol from US EPA 3050B (USEPA, 1996) was used. Briefly, approximate 0.2˜0.3 g of the respective rat organ samples was placed in 15 ml polypropylene tubes and digested with 1 mL of 69% HNO3 at 65° C. for 16 h, while 100 μL of rat blood was digested with equal volume of 69% HNO3 at 65° C. for 16 h. After being cooled down to room temperature, the samples were diluted to 1% nitric acid to the final volume of 3 mL for further use. To eliminate matrix effect, blood and organs were also collected from untreated rats and digested under identical condition serving as blank control. Standard solutions were prepared by diluting multielement calibration standard of bismuth in the respective blank control of organ and blood, respectively. The bismuth content in each organ or blood sample was then measured by ICP-MS and calculated according to the standard curve in respective blank control. Pharmacokinetic parameters including the peak concentration (Cmax), the area under the concentration-time curve (AUC), the time reaching Cmax (Tmax) were determined through noncompartmental analysis with Phoenix WinNonlin version 6.4 (Pharsight Corporation, Mountain View, Calif., USA).

VeroE6 cells = experiment: Cell viability assay (CellTiterGlo), VeroE6; assay type: cell-based, African green monkey; conditions: 48 hrs incubation; concentration based on metal content; read-out: CC50 VeroE6
Procedure: (§1) The CellTiterGlo® luminescent assay (Promega Corporation, Madison, Wis., USA) was performed to detect the cytotoxicity of the selected compounds as previously described^39. Briefly, VeroE6 cells (4×10^4 cells per well) and Caco2 cells (4×10^4 cells per well) were incubated with different concentrations of the individual compound in 96-well plates for 48 hrs, followed by the addition of the substrate and measurement of luminance 10 min later. Ridaura and Au(PEt3)Cl were dissolved in DMSO, and the final percentage of DMSO was kept at 1% in culture medium.

SARS-CoV-2 [2] = conditions: Caco-2
[3] = Ex vivo everted gut sac model; assay type: in vitro ADME, rat
Procedure: Ex vivo everted gut sac model was performed according to a modified method (10, 11). For the preparation of everted gut sac, small intestines were rapidly isolated from rats right after their sacrificing followed by being washed several times with 0.9% saline. Duodenum was segmented of the intestine (˜4 cm) in oxygenated medium [Krebs-Henseleit solution (pH 7.4, 1.25 mM NaHCO3, pH 7.4, 5.9 mM NaCl, 23.5 μM KCl, 60 μM MgSO4, 62.5 μM CaCl2, 60 μM KH2PO4, 550 μM glucose)], gently everted, washed, slid onto a glass rod and fastened with braided silk. Duodenum was clamped at one end and filled with an aliquot of 1 mL fresh oxygenated medium, and subsequently sealed with a second clamp, resulting an everted gut sac with approximately 3 cm in length using braided silk sutures.
The everted gut sacs (n=3 per group) were dialyzed in oxygenated medium supplemented with CBS (200 μM), CBS (200 μM)+1NAC (200 μM), CBS (200 μM)+3NAC (600 μM), CBS (200 μM)+10NAC (2 mM), respectively, at 37° C. Aliquots of 50 μL samples were withdrawn from the gut sacs at different time intervals (15, 30, 45, 60 min) and equal volume of oxygenated medium was supplemented in gut sacs immediately. The length and width of each intestinal segment was measured after the final sample was taken. Bismuth content transported into the gut sacs was measured by ICP-MS as mentioned above.

[4] = cited from earlier work
Caco2 cells = experiment: Cell viability assay (CellTiterGlo), Caco2; assay type: cell-based, human; conditions: 48 hrs incubation; concentration based on metal content; read-out: CC50 Caco2
Procedure: as §1

SARS-CoV-2 [5] = assay type: cell-based
SARS-CoV-2 [6] = assay type: cell-based; remark: listed apart in the source
SARS-CoV-2 [7] = experiment: Golden Syrian hamster model, oral treatment (NAC studies); assay type: in vivo; conditions: hamster, in vivo
SARS-CoV-2 [8] = assay type: cell-based; conditions: read-out: EC50 VeroE6
[9] = Chemical stability of bismuth drugs at different pH
[10] = oral, CBS 150 mg/kg, NAC 610 mg/kg, bismuth
[11] = oral, CBS 150 mg/kg, NAC 610 mg/kg, bismuth, listed as CBS

Colloidal Bismuth Subcitrate [De-Nol]
bismuth accumulation in kidney ([1]; 24 hours after oral dose): 6839.76 ng per tissue | bismuth accumulation in lung ([1]; 24 hours after oral dose): 552.15 ng per tissue | first peak value of blood bismuth level ([1]; at around 0.5 h, single oral dose CBS 150 mg/kg): 277.69 µg/L | AUC0→24 h (±SD) [1, 10]: 2324.20 (±759.76) h · μg/L | Cmax (±SD) [1, 10]: 447.06 ng/mL | AUC0→12 h (±SD) [1, 11]: 1316 h · μg/L and 1316.94 (±474.00) h · μg/L | Tmax (±SD) [1, 11]: 4 h and 2.53(±2.01) h | CC50 (VeroE6 cells): 3.254 ± 0.021 mM | maximal viral load reduction in Caco2 cell culture supernatant (SARS-CoV-2 [2]): ~4 logs | maximal viral load reduction in the Caco2 cell lysate (SARS-CoV-2 [2]): ~3 logs | cumulative bismuth permeated within 60 min ([3]; CBS 200 μM with 1 mol eq. NAC): 30.21 ng/cm2 | cumulative bismuth permeated within 60 min ([3]; CBS 200 μM with 3 mol eq. NAC): 64.98 ng/cm2 | cumulative bismuth permeated within 60 min ([3]; CBS 200 μM with 10 mol eq. NAC): 98.61 ng/cm2 | cumulative bismuth permeated within 60 min ([3]; CBS 200 μM, without NAC): 14.68 ng/cm2 | optimum pH for precipitation ([4]; gastric juice): 3.5 | solubility ([4]; water): soluble in water | CC50 (Caco2 cells): 3.74 ± 0.125 mM | effect on virus replication, drug maintained after virus entry (post-entry) (SARS-CoV-2 [5]): functioned at post-entry stages | viral NP antigen-positive cells (SARS-CoV-2 [6]): 37.25% | cumulative permeated bismuth (PBS iso-pH 1.2, in the presence of 10 mol eq. NAC): 24.91 ng/cm2 | cumulative permeated bismuth (PBS iso-pH 1.2, without NAC): 16.95 ng/cm2 | bismuth intestinal permeation within 60 min (Caco-2 cell monolayer): moderately elevated | adverse clinical signs and symptoms (SARS-CoV-2 [7]): mildly mitigated | pulmonary viral load compared with vehicle group (SARS-CoV-2 [7]): No statistically significant difference | change in lung IL-6 level versus vehicle group (SARS-CoV-2 [7]; po): lowered but statistically non-significant change | EC50 (SARS-CoV-2 [8]): 0.0046 ± 0.0004 mM | bismuth found in the supernatant ([9]; pH 1.2, after 1 hour, without NAC): less than 10% | bismuth remaining in the supernatant ([9]; pH 1.2, in the presence of 3 mol eq. NAC): approximately 100% | bismuth remaining in the supernatant ([9]; pH 1.2, in the presence of 10 mol eq. NAC): approximately 100% | hydrolysis at pH 9.2 in the presence of NAC ([9]; pH 9.2): prevent hydrolysis

Source: patent US20230218663A1, “COMPOSITIONS AND METHODS FOR TREATING A SARS-COV-2 INFECTION” (priority 2020, published 2023)
